A word on the inhibition: it is the percentage by which the read-out fell short of the control.

The structures appear in SMILES notation. Like-named read-outs stand apart in the source and are kept apart here.

Here are results for 1 compound from US20210330611A1, “THERAPY FOR NEUROLOGICAL DISEASES/DISORDERS” (priority 2020, published 2021).

The subject of one series is mouse BMDMs. Nature of the series: ROS production (DHE) in fibrin-stimulated mouse BMDMs. The format is cell-based. The following applies: fibrin 24 h, 5 μM inhibitor, FIG. 6b. As for the experimental part: Bone marrow—derived macrophage cultures. […]. In brief, bone-marrow cells were isolated from tibia and femur of C57BL/6 mice, Ggt1^+/+ mice or Ggt1^dwg/dwg mice and cultured in RPMI-1640 medium supplemented with 10% FBS, 1% penicillin-streptomycin (Corning), and 10 ng/ml murine M-CSF (14-8983-80, Thermo Fisher Scientific). On days 6-7, adherent BMDMs were harvested by adding PBS with 5 mM EDTA to the plates and used for assays.
Human macrophage cultures. Human peripheral blood mononuclear cells (PBMCs) were purchased from AllCells, LLC (Alameda, Calif.). To differentiate PBMC into monocyte-derived macrophages, 2×10^6 PBMC/mL were plated in RPMI-1640 media supplemented with 10% FBS, 1% penicillin-streptomycin (Corning), and 50 ng/ml human M-CSF (300-25, Peprotech) in tissue-culture treated dishes (Corning). After 24 h, non-adherent cells were removed, and adherent cells were cultivated for 7-8 additional days at 37° C. in 5% CO2 to promote their full differentiation into macrophages. Oxidant detection with DHE. Intracellular concentrations of ROS were measured using dihydroethidium (DHE) as described (9). […] The DHE fluorescence was detected at an excitation/emission wavelength of 518 nm/605 nm using a SpectraMax M5 microplate reader (Molecular Devices) with SoftMax Pro 5.2 software (Phoenix Technologies Ltd.).

Series [1] relates to fibrin-induced microglia activation. Nature of the series: Image-based assay of fibrin-induced microglia activation (HTS and dose response). The format is cell-based, rat.
For the next series, the system named is MOG35-55 EAE. Nature of the series: Active MOG35-55 EAE, clinical scores. The format is in vivo, mouse. To be noted: mouse, in vivo, 5 mg/kg.
Another series deals with BMDMs. The format is cell-based, mouse. The following applies: 24 h, FIG. 12. As for the experimental part:
FIGS. 12A-E. Effects of acivicin on microglia, macrophage and whole blood cell numbers. a, Representative images showing morphology and density of primary microglia treated with vehicle or acivicin for 48 h stained with nuclei marker Hoechst or CellMask Red Whole Cell Stain. Quantification of the total number of microglia. Data are representative of one experiment with technical replicates (open symbols). b, Representative confocal images showing morphology and density of control- and acivicin-treated BMDMs treated for 24 h. Scale bar, 100 μm. Insets depict digitally zoomed in areas of regions of interest. Quantification of the total number of BMDMs in the field of view. […] Cell viability of single CD45^+ cells was assessed by Sytox blue live/dead nuclei stain. Quantification of percent cell viability of CD45^+ BMDMs treated with acivicin or left untreated. Data are from 2 independent experiments with n=4 mice per group (mean±s.d.). d, Quantification of complete blood count analysis of white blood cells (WBCs), red blood cells (RBC), platelets (PLT) (left) and composition of WBCs (right) of blood samples from healthy mice treated with saline or acivicin for 10 days. […] Quantification of total microglia cell numbers in healthy mice treated with acivicin or saline. […]

Series [2] has as its system LPS injection in the substantia nigra. As to the kind of experiment: LPS-induced neurodegeneration in substantia nigra, TH and Iba-1 immunohistochemistry. The format is in vivo, mouse. As for the experimental part:
Stereotactic LPS injection and drug treatment. Mice were anaesthetized with isoflurane and placed in a stereotactic apparatus (David Kopf Instruments). LPS (Sigma-Aldrich) was dissolved in endotoxin-free distilled water (HyClone) and was diluted to 1 μg/ml with PBS. LPS (2 μl of 1 μg/ml) or PBS was slowly injected (0.3 μl/min) using a 10-μl Hamilton syringe attached to a 33-G needle into the substantia nigra at coordinates (anteroposterior, 3.0 mm; mediolateral, 1.3 mm; dorsoventral, 4.7 mm from the bregma, according to Paxinos and Watson) Animals received acivicin (5 mg/kg) or saline intraperitoneally beginning 5 days before LPS injection and for 7 days after LPS injection. After 12 h of the LPS injection, the substantia nigra area was immediately collected on ice and kept at −80° C. for later analysis of GGT activity. After 7 d of the LPS injection, mice were perfused with 4% PFA, and the brains were post-fixed in 4% PFA overnight at 4° C. […] Images were acquired with all-in-one BZ-X700 fluorescence microscope. Images were quantified using NIH ImageJ (version 1.50) by blinded observers.

As to `N[C@H](C(=O)O)[C@@H]1CC(Cl)=NO1` [Acivicin, (2S)-2-amino-2-[(5S)-3-chloro-4,5-dihydro-1,2-oxazol-5-yl] acetic acid], in the series with mouse BMDMs, the “ROS generation (DHE) in mouse macrophages” value is given as “decreased”. The IC50 in series [1] (Rattus norvegicus, Microglia, 48 h, Table 1, dose response 0.001-20 μM, triplicates, primary rat microglia, 48 h, read-out: Fibrin IC50) amounted to 2 µM; in series [1] (Rattus norvegicus, Microglia, Table 7, read-out: fib_IC50) it was 0.57 µM; in series [1] (Rattus norvegicus, Microglia, dose response, fibrin-induced microglia activation, read-out: Fibrin IC50), 2 µM; in series [1] (Rattus norvegicus, Microglia, fibrin-induced microglia activation, dose response, read-out: Fibrin IC50 (uM) (Suppl. Table 7)) it was 2 µM. For the same compound, the inhibition at 10 µM in series [1] (Rattus norvegicus, Microglia, primary microglia HTS, fibrin stimulation, increased cell size (>800 μm^2) as marker of activation, read-out: Fibrin % inhibition) came to 90%. Moreover, in series [1] (dose-dependent, FIG. 6a), the fibrin-induced microglial activation entry was “inhibited”. The “disease onset and severity” value in the series with MOG35-55 EAE is reported as “delayed”. For the same compound, the “macrophage cell number in vitro” value in the series on BMDMs is “did not affect”. Besides, the “microglial activation (Iba-1)” value in series [2] (7 d after LPS, FIG. 15c) is “decreased”. For the same compound, the “dopaminergic neuronal survival (TH)” value in series [2] (mouse, in vivo) is on record as “improved”.
